According to paper PMC3198786, “LL37 and Cationic Peptides Enhance TLR3 Signaling by Viral Double-stranded RNAs” (PLoS ONE, 2011):

Tests used:
TLR3 signaling [1] = assay: poly(I:C)-induced IL6 production by BEAS2B cells (ELISA); type: cell-based, human; conditions: for Fold induction above poly(I:C) induced IL6 production (BEAS2B): BEAS2B cells, 0.13 µg/ml poly(I:C) ± peptides (5 µM), IL6 ELISA, number of experiments in parentheses, duplicate or triplicate per experiment
Experimental: (§1) BEAS2B cells were plated at 1.5×10^4 cells/well in 96-well plates. 24 h after plating, the media was replaced with 50 µl of media containing the indicated treatments. Unless otherwise noted, poly(I:C) and LPS were added to the medium of cells to final concentrations of 0.13 µg/ml and 1 µg/ml, respectively. To activate RIG-I, 10 nM shR9 with a 5′ triphosphate was transfected into cells using Lipofectamine 2000 (Invitrogen, Carlsbad, CA). Supernatants were collected after 18-24 h and assayed for IL6 or IL8 secretion using an ELISA kit according to the manufacturer's protocol (BD Biosciences, San Diego, CA). The IL6 or IL8 level was calculated based on a standard curve fitted using a sigmoidal variable slope dose-response using software from GraphPad Prism (La Jolla, CA) and normalized to […] per well. For PBMCs, an initial 150,000 cells per well were suspended in 100 µl of RPMI medium (Invitrogen) containing 10% FBS and incubated overnight at 37°C, 5% CO2. The cells were treated with poly(I:C) at 5 µg/ml in the absence or presence of LL37 (5.6 µM) for 20–24 h. […] The supernatants were collected and frozen until analysis. Cytokine levels for IP10, IL1α and MCP1 were measured using a Milliplex assay kit (Millipore, Billerica, MA).

BEAS2B cells = assay: WST-1 viability of BEAS2B cells; type: cell-based, human
Experimental: Supplementary file pone.0026632.s002.tif: Figure S2 Effects of LL37 concentration on viability of BEAS2B cells±poly(I:C). Cell viability was assessed using the WST-1 assay (Clontech, Mountain View CA). After treatments, cells were incubated with WST-1 substrate for 4 h and absorbance was measured at 450 nm with 630 nm as reference. The readout performed in the absence of LL37 (i.e. Control) is defined as 100%. […] The graph is representative of five experiments. […] (TIF) Click here for additional data file.

[2] = test system: human peripheral blood mononuclear cells (PBMCs); assay: Cytokine production in human PBMCs (Milliplex); type: cell-based; conditions: peptide 5.6 µM
Experimental: as §1

[3] = Negative-stain electron microscopy of particle dimensions; type: physicochemical; conditions: negative-stain TEM, pH 7.4, linear regression
Experimental: Poly(I:C) at 50 µg/ml (low molecular weight, Invitrogen) was incubated alone or with LL37 or Sc37 (each at 10 µM) in Tris-buffered saline, pH 7.4 at 4°C for 15 min. Sample of 10 µl was placed on top of a glow-discharged 400 mesh carbon-coated copper grid (EMS). After one min incubation at RT, the drop was removed by absorption onto filter paper. The grids containing the samples were then stained with 2% uranium acetate for 20 s. Excess stain was removed and the grids were air-dried for 15 min. Micrographs of the grids were taken with JEOL transmission microscope at 80 kV, using 40,000x magnification. The micrographs were collected and measurement of length and width of particles were calculated using EMAN software as described by. Data points for each treatment were fitted using linear regression and the slope of each line was calculated using GraphPad Prism software.

TLR3 signaling [4] = assay: Viral RNA-induced IL6 production by BEAS2B cells; type: cell-based, human; conditions: Sc37 2.2 µM, n>4
Experimental: Poly(I:C) (Amersham Biosciences or GE Healthcare) was reconstituted in phosphate buffered saline (PBS; Invitrogen, Carlsbad, CA). Size-selected Poly(I:C) of 50–125 bps were generated as described previously. Fluorescently-labeled Cy5-poly(I:C) was made as described in [43]. LPS was from Sigma-Aldrich Inc. DsRNAs from Reovirus were extracted from purified virions (a kind gift from Dr. Danthi, Indiana University). […] The ssRNAs were then adjusted to a 1∶1 molar ratio in PBS and heated to 95°C for five minutes followed by slow cooling to room temperature to allow the strands to anneal to form S4 dsRNA. Plant endornavirus BPEV dsRNA was the kind gift of R. Valverde (Louisana State University, Baton Rouge, LA). Positive-strand ssRNA from hepatitis virus JFH1 was made by in vitro transcription from a cDNA of JFH-1 [63]. Plasmids encoding the wild-type TLR3, TLR4 and RIG-I were from InvivoGen (San Diego, CA). […]
BEAS2B cells were plated at 1.5×10^4 cells/well in 96-well plates. […] The IL6 or IL8 level was calculated based on a standard curve fitted using a sigmoidal variable slope dose-response using software from GraphPad Prism (La Jolla, CA) and normalized to µg/ml per well. […] Cytokine levels for IP10, IL1α and MCP1 were measured using a Milliplex assay kit (Millipore, Billerica, MA).

TLR3 = TLR3 ISRE luciferase reporter assay in 293T/TLR3 cells; type: cell-based, human; conditions: for Fold induction above Reovirus dsRNA (293T/TLR3 reporter): 293T/TLR3 cells, reovirus genomic RNA 2 µg/ml, peptides 2 µM, ISRE luciferase reporter
Experimental: Luciferase reporter assays were performed according to the protocol of [36]. Briefly, HEK 293T cells were plated in white-walled 96-well plates at 4.4×10^4 cells/well and transfected with plasmids pUNO-huTLR3 (0.5 ng/well), pISRE-Luc (30 ng/well) and phRL-TK (5 ng/well) using Lipofectamine 2000. The cells were grown for 24 h to allow expression from the plasmids. […] After 18–24 h of incubation, luciferase activity was determined using the Dual-Glo Luciferase assay system (Promega).

TLR4 signaling = assay: LPS-induced IL6 production by BEAS2B cells (ELISA); type: cell-based, human; conditions: LPS 1 µg/ml, T3/T4 0.6–10 µM, Tat and Arg(9) 10 µM
Experimental: as §1

In the case of `O=C(O[C@@H]1Cc2c(O)cc(O)cc2O[C@@H]1c1cc(O)c(O)c(O)c1)c1cc(O)c(O)c(O)c1` [EGCG], the “Effect on the Tat peptide's enhancement of IL6 production” value (TLR3 signaling [1]; BEAS2B, data not shown) is reported as “did not affect”.
For `CC[C@H](C)[C@H](NC(=O)[C@H](CCCCN)NC(=O)[C@H](CCC(=O)O)NC(=O)[C@H](CCCCN)NC(=O)[C@H](CO)NC(=O)[C@H](CCCCN)NC(=O)[C@H](CCCNC(=N)N)NC(=O)[C@H](Cc1ccccc1)NC(=O)[C@H](Cc1ccccc1)NC(=O)[C@H](CC(=O)O)NC(=O)CNC(=O)[C@H](CC(C)C)NC(=O)[C@@H](N)CC(C)C)C(=O)NCC(=O)N[C@@H](CCCCN)C(=O)N[C@@H](CCC(=O)O)C(=O)N[C@@H](Cc1ccccc1)C(=O)N[C@@H](CCCCN)C(=O)N[C@@H](CCCNC(=N)N)C(=O)N[C@H](C(=O)N[C@H](C(=O)N[C@@H](CCC(N)=O)C(=O)N[C@@H](CCCNC(=N)N)C(=O)N[C@H](C(=O)N[C@@H](CCCCN)C(=O)N[C@@H](CC(=O)O)C(=O)N[C@@H](Cc1ccccc1)C(=O)N[C@@H](CC(C)C)C(=O)N[C@@H](CCCNC(=N)N)C(=O)N[C@@H](CC(N)=O)C(=O)N[C@@H](CC(C)C)C(=O)N[C@H](C(=O)N1CCC[C@H]1C(=O)N[C@@H](CCCNC(=N)N)C(=O)N[C@H](C(=O)N[C@@H](CCC(=O)O)C(=O)N[C@@H](CO)C(=O)O)[C@@H](C)O)C(C)C)[C@@H](C)CC)C(C)C)[C@@H](C)CC` [LL37], the “Toxicity in the presence of poly(I:C)” value (BEAS2B cells; BEAS2B, WST-1, LL37 3 µM) was “did not show significant toxicity”, the “Effect on cell viability in the absence of poly(I:C)” value (BEAS2B cells; BEAS2B, WST-1, LL37 up to 5 µM, representative of five experiments) was “no effect on cell viability” and the “Effect on BEAS2B cell viability” value (BEAS2B cells; at or less than 3 µM, by itself or in the presence of poly(I:C), WST-1, n = 5) was “minimal effects”. For the same compound, the “Cytotoxicity judged by morphology of PBMCs” value ([2]; data not shown) was “no obvious cytotoxicity”.
With `COc1cc2ncnc(Nc3cccc(Cl)c3)c2cc1OC` [tyrphostin AG 1478] the “Effect on IL6 production induced by poly(I:C) or poly(I:C) in combination with LL37” value (TLR3 signaling [1]; BEAS2B, unpublished observations) was “had no effect”.
For “LLGNFFRKSKQKIGKQFKRIVQRIKNFFRNLVPRTQS [Sc37]”, the “Fold induction above poly(I:C) induced IL6 production (BEAS2B)” value (TLR3 signaling [1]) was 1.05±0.11 (6) fold, the “Enhancement of poly(I:C)-induced IL6 levels compared to poly(I:C) alone” value (TLR3 signaling [1]; BEAS2B, peptide 2.2 µM, poly(I:C) 0.13 µg/ml, 20 h, LL37 n = 23, Sc37 n = 7) was “did not enhance IL6 production” and the “Slope of best fit line of particle lengths and widths” value [3] was 0.8 ± 0.05. The “Effect on IL6 production by the viral RNAs tested” value (TLR3 signaling [4]) was “did not increase IL6 production”, the “Additional increase of reporter levels above that of the Reovirus dsRNAs” value (TLR3; 293T/TLR3, peptide 2 µM, Reovirus dsRNA, LL37 n = 8, Sc37 n = 4) was “did not affect reporter activity” and the “Fold induction above Reovirus dsRNA (293T/TLR3 reporter)” value (TLR3) was 1.0±0.03 (9) fold. The “Increase of IL1α, MCP1 and IP10 levels with poly(I:C) above poly(I:C) or peptide alone” value ([2]; poly(I:C) 5 µg/ml, 24 h, n = 3) was “did not significantly increase”.
In the case of “NAKTRRHERRRKLAIER [P22N(14-30), arginine-containing peptide]”, the “Fold induction above poly(I:C) induced IL6 production (BEAS2B)” value (TLR3 signaling [1]; 5 µM) is reported as 1.0±0 (3) fold, the “Fold induction above poly(I:C) induced IL6 production (BEAS2B)” value (TLR3 signaling [1]; listed as P22(14-30), 5 µM) is reported as “did not enhance TLR3 signaling” and the “Fold induction above Reovirus dsRNA (293T/TLR3 reporter)” value (TLR3) is reported as 1.3±0.14 (4) fold.
With “RQIKIWFQNRRMKWKK [Penetrin, peptide derived from the protein antennapedia; cell-penetrating peptide]” the “Fold induction above poly(I:C) induced IL6 production (BEAS2B)” value (TLR3 signaling [1]) was 2.9±1.2 (3) fold and the “Fold induction above Reovirus dsRNA (293T/TLR3 reporter)” value (TLR3) was 1.1±0.05 (4) fold.
In the case of “RRRRRRRRR [Arg(9), cell-penetrating peptide of nine arginines]”, the “Effect on LPS-induced IL6 production” value (TLR4 signaling) is reported as “no effect on LPS signaling” and the “Fold induction above Reovirus dsRNA (293T/TLR3 reporter)” value (TLR3) is reported as 1.5±0.17 (4) fold.
For TRAQRRAAARGGGVVIAC [Peptide 3], the “Fold induction above poly(I:C) induced IL6 production (BEAS2B)” value (TLR3 signaling [1]) was 3±0.62 (8) fold and the “Fold induction above Reovirus dsRNA (293T/TLR3 reporter)” value (TLR3) was 1 fold.
For “TRAQRRAAARGVQIVYKC [T4, peptide derived from the Brome mosaic virus (BMV) capsid]”, the “Fold induction above poly(I:C) induced IL6 production (BEAS2B)” value (TLR3 signaling [1]) was 5.6±1.4 (6) fold, the “Effect on LPS-induced IL6 production” value (TLR4 signaling) was “not affected” and the “Fold induction above Reovirus dsRNA (293T/TLR3 reporter)” value (TLR3) was 1 fold.
With “TRAQRRAAARRNRACCPGCCS [T3, peptide derived from the Brome mosaic virus (BMV) capsid]” the “Fold induction above poly(I:C) induced IL6 production (BEAS2B)” value (TLR3 signaling [1]) was 3±0.4 (8) fold, the “Effect on LPS-induced IL6 production” value (TLR4 signaling) was “not affected” and the “Fold induction above Reovirus dsRNA (293T/TLR3 reporter)” value (TLR3) was 1.3±0.08 (4) fold.
With “TSAQSSAAASSNSACCPGCCS [T3Ser, variant of the peptide T3 that had the arginines substituted with serines]” the “Fold induction above poly(I:C) induced IL6 production (BEAS2B)” value (TLR3 signaling [1]; 5 µM) was 0.8±0.12 (4) fold, the “Fold induction above poly(I:C) induced IL6 production (BEAS2B)” value (TLR3 signaling [1]; listed as T3ser, 5 µM) was “lost the ability to enhance IL6 production” and the “Fold induction above Reovirus dsRNA (293T/TLR3 reporter)” value (TLR3) was 1 fold.
With “YGRKKRRQRRR [Tat47-57, Tat peptide that is rich in basic residues; cell-penetrating peptide]” the “Fold induction above poly(I:C) induced IL6 production (BEAS2B)” value (TLR3 signaling [1]; 5 µM) was 3.7±0.43 (10) fold, the “Fold induction above poly(I:C) induced IL6 production (BEAS2B)” value (TLR3 signaling [1]; listed as Tat peptide, 5 µM) was “at least 2.9 fold” and the “Effect on LPS-induced IL6 production” value (TLR4 signaling) was “no effect on LPS signaling”. The “Fold induction above Reovirus dsRNA (293T/TLR3 reporter)” value (TLR3) was 1.3±0.19 (3) fold.
In the case of mCRAMP, the “Enhancement of IL6 production in response to poly(I:C)” value (TLR3 signaling [1]; BEAS2B, KR18-37 4 µM, mCRAMP 5 µM, poly(I:C) 0.13 µg/ml, 24 h, n = 3) is reported as “unable to enhance IL6 production”.
For poly(I:C), the “IL6 levels above basal levels” value (TLR3 signaling [1]; BEAS2B, poly(I:C) added to medium, n = 12) was 15 ± 2.2 fold and the “Slope of best fit line of particle lengths and widths” value [3] was 0.53 ± 0.12.
